Where two headings read alike, the source gives them in different places.
What was measured:
Test in all cases: Reaction Biology P33 radiolabeled kinase assay, IC50 and time dependence
Assay type in all cases: biochemical
PI3K-γ = target: T1, PI3K-γ (Homo sapiens, UniProt P48736); conditions: for IC50: ATP 10 uM, read-out: Compound IC50* PI3K-γ
T1 construct: purchased Reaction Biology Inc (contract assay)
Experimental: (§1) “Inhibiting kinase activity” means to decrease the production of an phosphor-peptide by a particular kinase that can be separated by analytical techniques. For example, a comprehensive platform of kinase, protease, phosphatase and epigenetic assays that utilizes cutting-edge microfluidics and informatics tools to provide accurate and rapid results. Profiling data in this application were determined using these techniques at Nanosyn Inc. IC50 data were provided by Reaction Biology Inc using a P33 radiolabeled kinase assay.
(§2) The observation of potency and isoform selectivity with time-dependency for PI3K-γ appears to be unprecedented in the literature. In addition, these activities combined with inhibition of p38-α, Raf-1, DDR and CSF-1R, would be complimentary and potentially synergistic activities for both the treatment of certain inflammation based conditions and cancers.

BRAF (V599E) = target: T2, BRAF (V599E) (Homo sapiens, UniProt P15056, V600E); conditions: for IC50: ATP 10 uM, read-out: Compound IC50* BRAF (V599E)
T2 construct: purchased Reaction Biology Inc (contract assay)
Experimental: as §1, §2

P38b/MAPK11 = target: T3, P38b/MAPK11 (Homo sapiens, UniProt Q15759); conditions: for IC50: ATP 10 uM, read-out: Compound IC50* P38b/MAPK11
T3 construct: purchased Reaction Biology Inc (contract assay)
Experimental: as §1, §2

TNK1 = target: T4, TNK1 (Homo sapiens, UniProt Q13470); conditions: for IC50: ATP 10 uM, read-out: Compound IC50* TNK1
T4 construct: purchased Reaction Biology Inc (contract assay)
T4 sequence (Q13470 1-666): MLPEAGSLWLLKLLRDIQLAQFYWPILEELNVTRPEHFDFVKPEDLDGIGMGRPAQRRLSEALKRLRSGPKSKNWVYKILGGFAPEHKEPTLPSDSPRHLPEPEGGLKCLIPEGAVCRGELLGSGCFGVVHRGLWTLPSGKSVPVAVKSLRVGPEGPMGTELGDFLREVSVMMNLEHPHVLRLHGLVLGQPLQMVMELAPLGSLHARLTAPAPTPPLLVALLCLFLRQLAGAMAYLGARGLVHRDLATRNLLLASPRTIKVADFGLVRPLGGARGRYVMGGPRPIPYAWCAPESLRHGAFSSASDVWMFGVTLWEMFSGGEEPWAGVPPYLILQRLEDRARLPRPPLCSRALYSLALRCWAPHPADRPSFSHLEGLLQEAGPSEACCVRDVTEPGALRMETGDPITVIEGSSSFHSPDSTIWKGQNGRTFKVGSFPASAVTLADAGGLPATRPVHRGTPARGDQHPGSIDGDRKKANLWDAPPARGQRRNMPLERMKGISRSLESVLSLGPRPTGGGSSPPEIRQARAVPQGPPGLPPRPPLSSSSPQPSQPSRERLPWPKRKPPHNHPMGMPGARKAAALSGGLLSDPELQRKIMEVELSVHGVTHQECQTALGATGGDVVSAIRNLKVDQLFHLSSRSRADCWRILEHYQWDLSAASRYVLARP
Experimental: as §1, §2

ARAF = target: T5, ARAF (Homo sapiens, UniProt P10398); conditions: for IC50: ATP 10 uM, read-out: Compound IC50* ARAF
T5 construct: purchased Reaction Biology Inc (contract assay)
T5 sequence (P10398 1-606): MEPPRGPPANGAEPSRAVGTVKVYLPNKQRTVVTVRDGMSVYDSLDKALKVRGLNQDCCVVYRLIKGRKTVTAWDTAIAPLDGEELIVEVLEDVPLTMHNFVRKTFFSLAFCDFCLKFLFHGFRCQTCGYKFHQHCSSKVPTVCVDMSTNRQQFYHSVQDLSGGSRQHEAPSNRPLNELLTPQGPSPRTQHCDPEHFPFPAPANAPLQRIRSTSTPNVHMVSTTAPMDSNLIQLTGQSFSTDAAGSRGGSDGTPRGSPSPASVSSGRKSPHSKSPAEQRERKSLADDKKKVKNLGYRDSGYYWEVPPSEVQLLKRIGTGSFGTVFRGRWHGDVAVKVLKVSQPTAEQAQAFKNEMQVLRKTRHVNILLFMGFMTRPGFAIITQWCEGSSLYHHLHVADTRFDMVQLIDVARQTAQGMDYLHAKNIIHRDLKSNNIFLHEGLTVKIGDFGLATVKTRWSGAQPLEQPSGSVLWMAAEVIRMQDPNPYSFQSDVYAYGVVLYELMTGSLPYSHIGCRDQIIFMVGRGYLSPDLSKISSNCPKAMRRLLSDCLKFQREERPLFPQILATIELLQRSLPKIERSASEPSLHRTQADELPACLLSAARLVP
Experimental: as §1, §2

DDR2 = target: T6, DDR2 (Homo sapiens, UniProt Q16832); conditions: for IC50: ATP 10 uM, read-out: Compound IC50* DDR2
T6 sequence (Q16832 22-855): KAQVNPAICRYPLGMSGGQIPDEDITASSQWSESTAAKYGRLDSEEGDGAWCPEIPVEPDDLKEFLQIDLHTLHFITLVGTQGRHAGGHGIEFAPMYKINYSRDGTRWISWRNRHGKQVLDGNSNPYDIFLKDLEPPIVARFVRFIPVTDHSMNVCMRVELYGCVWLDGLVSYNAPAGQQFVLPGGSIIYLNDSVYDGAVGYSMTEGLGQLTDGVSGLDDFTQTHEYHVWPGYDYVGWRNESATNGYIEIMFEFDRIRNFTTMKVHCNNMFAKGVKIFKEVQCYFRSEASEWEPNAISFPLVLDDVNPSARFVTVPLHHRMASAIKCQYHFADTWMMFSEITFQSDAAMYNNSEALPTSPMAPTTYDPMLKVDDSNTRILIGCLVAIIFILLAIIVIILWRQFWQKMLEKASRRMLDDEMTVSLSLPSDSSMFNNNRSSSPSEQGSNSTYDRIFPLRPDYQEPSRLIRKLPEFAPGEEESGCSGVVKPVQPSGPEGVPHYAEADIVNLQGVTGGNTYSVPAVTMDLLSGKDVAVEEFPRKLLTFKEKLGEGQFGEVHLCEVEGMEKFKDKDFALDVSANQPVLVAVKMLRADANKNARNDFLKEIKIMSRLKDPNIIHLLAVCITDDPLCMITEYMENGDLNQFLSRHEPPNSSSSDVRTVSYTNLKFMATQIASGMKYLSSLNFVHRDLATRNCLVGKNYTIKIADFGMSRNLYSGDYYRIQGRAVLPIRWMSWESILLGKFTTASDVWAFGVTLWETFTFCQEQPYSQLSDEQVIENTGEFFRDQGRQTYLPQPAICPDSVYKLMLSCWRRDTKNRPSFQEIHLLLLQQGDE
Experimental: as §1, §2

ROS/ROS1 = target: T7, ROS/ROS1 (Homo sapiens, UniProt P08922); conditions: for IC50: ATP 10 uM, read-out: Compound IC50* ROS/ROS1
T7 construct: purchased Reaction Biology Inc (contract assay)
Experimental: as §1, §2

T3 sequence (Q15759 whole entry): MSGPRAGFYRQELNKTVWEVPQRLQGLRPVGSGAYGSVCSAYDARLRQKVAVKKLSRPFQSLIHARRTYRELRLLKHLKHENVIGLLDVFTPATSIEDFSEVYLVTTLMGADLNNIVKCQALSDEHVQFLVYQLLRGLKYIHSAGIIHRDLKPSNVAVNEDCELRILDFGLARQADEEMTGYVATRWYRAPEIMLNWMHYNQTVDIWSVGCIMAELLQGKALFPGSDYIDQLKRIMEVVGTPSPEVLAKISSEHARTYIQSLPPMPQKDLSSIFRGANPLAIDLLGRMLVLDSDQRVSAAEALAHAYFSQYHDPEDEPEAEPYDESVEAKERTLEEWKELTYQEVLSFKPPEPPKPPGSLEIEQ
T7 sequence (P08922 28-2347): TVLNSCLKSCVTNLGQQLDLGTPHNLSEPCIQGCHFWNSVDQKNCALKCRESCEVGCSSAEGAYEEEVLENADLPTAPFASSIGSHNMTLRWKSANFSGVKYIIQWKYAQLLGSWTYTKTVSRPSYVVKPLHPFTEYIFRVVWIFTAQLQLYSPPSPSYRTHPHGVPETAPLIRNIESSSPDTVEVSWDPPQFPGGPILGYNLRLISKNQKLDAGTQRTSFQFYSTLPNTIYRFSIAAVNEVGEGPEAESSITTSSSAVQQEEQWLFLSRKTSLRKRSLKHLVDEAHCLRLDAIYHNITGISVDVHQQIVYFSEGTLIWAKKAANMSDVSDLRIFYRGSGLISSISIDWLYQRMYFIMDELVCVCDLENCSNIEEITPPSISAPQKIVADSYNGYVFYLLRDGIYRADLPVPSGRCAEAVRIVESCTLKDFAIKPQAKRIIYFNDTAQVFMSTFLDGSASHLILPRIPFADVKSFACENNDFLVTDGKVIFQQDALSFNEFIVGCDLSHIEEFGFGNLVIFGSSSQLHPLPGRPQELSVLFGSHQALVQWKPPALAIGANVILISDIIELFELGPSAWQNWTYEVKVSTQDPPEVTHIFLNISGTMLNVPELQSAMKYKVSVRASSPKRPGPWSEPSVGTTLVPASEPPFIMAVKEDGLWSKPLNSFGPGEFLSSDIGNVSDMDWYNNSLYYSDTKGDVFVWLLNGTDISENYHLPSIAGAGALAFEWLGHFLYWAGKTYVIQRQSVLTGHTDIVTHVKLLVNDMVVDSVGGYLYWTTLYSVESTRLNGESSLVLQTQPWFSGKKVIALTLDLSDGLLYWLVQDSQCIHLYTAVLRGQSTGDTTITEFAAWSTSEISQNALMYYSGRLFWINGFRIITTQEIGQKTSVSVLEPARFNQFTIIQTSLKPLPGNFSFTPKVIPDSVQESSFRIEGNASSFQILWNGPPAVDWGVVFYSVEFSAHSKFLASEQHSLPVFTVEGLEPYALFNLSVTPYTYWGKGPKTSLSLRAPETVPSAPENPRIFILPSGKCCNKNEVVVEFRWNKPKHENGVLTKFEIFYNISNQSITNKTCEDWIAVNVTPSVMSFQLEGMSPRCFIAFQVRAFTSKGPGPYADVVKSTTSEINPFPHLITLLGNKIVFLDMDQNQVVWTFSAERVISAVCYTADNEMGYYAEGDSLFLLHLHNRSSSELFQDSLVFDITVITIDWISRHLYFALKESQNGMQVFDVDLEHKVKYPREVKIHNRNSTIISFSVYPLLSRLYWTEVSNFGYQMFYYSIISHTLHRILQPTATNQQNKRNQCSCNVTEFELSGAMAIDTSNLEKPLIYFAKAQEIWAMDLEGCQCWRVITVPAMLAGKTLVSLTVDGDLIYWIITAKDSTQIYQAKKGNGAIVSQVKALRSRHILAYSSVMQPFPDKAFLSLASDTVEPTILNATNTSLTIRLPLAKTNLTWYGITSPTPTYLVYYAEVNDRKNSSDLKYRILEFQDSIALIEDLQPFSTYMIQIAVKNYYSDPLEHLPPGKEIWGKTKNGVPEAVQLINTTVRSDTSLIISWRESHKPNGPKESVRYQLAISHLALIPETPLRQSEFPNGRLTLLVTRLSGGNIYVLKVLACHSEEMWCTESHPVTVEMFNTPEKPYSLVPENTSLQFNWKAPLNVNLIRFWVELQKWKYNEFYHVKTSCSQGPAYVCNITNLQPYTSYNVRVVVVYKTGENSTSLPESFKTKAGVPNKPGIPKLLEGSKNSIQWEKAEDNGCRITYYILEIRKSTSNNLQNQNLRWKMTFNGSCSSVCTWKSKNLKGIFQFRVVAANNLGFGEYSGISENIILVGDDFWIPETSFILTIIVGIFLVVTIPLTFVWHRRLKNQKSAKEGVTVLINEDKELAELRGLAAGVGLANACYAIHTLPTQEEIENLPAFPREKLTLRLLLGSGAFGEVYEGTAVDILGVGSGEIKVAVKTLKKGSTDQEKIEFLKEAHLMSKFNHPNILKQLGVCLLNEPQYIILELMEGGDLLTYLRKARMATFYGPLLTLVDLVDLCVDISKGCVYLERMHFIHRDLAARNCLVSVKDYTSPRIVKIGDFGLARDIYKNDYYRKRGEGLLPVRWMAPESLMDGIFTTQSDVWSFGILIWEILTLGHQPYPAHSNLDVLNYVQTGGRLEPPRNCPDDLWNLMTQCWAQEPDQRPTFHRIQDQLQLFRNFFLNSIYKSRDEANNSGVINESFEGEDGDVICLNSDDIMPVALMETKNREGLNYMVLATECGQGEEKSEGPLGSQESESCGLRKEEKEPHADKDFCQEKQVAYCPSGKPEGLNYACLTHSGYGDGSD
T2 sequence (P15056 2-766 V600E): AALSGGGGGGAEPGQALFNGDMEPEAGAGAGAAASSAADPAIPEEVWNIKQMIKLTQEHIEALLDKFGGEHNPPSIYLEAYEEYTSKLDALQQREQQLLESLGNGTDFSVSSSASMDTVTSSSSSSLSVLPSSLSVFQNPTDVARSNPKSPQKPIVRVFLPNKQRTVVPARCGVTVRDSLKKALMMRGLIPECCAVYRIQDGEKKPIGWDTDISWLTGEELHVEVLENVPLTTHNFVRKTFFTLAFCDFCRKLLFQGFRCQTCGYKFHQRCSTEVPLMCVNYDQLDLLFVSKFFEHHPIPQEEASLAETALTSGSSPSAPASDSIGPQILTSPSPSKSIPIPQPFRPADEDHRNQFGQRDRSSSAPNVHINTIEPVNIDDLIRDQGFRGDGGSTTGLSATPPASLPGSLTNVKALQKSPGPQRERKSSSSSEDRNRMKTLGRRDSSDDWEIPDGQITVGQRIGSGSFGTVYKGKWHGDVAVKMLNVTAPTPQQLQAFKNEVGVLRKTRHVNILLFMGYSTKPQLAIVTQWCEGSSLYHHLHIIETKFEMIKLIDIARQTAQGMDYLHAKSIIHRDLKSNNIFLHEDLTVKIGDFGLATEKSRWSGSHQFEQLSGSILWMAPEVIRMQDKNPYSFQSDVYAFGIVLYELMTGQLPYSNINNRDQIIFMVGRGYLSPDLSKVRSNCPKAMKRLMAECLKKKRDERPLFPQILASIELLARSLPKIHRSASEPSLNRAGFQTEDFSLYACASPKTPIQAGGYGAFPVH
T1 sequence (P48736 whole entry): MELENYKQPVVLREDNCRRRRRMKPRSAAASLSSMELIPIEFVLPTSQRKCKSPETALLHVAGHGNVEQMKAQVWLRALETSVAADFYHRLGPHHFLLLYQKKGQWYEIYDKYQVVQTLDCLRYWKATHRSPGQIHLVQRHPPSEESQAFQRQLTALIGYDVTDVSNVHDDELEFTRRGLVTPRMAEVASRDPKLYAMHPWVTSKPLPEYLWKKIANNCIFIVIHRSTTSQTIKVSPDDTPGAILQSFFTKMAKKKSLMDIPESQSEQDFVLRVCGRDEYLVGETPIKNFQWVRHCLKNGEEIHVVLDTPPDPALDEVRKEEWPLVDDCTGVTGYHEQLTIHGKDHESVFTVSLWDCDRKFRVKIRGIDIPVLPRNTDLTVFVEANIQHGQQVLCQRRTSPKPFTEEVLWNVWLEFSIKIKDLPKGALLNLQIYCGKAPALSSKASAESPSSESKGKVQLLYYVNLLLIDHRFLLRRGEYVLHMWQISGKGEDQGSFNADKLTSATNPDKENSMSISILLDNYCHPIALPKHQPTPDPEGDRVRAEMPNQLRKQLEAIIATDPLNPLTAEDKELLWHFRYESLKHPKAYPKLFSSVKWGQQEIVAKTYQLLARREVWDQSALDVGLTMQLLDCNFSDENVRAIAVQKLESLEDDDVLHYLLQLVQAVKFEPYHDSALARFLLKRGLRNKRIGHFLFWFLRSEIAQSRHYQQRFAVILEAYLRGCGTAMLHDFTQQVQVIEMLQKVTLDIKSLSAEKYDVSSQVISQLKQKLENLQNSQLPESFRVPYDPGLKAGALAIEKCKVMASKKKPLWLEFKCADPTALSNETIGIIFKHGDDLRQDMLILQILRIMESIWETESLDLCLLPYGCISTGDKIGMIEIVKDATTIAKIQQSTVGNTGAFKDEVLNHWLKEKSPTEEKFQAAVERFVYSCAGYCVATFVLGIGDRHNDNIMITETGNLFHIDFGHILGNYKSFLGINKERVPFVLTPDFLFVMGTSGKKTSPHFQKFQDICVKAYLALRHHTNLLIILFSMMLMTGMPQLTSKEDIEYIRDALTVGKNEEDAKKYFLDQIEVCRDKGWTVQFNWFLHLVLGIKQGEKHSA

Time Dependence Observed? PI3K-γ (PI3K-γ; 15 vs 60 Min preincubation): Yes
IC50 (PI3K-γ; preincubation 15 Min): 127 nM
IC50 (PI3K-γ; preincubation 60 Min): 57.8 nM
Time Dependence Observed? BRAF (V599E) (BRAF (V599E); 15 vs 60 Min preincubation): No
IC50 (BRAF (V599E); preincubation 15 Min): 194 nM
IC50 (BRAF (V599E); preincubation 60 Min): 194 nM
Time Dependence Observed? P38b/MAPK11 (P38b/MAPK11; 15 vs 60 Min preincubation): No
IC50 (P38b/MAPK11; preincubation 15 Min): 1020 nM
IC50 (P38b/MAPK11; preincubation 60 Min): 1080 nM
Time Dependence Observed? TNK1 (TNK1; 15 vs 60 Min preincubation): No
IC50 (TNK1; preincubation 15 Min): 210 nM
IC50 (TNK1; preincubation 60 Min): 241 nM
Time Dependence Observed? ARAF (ARAF; 15 vs 60 Min preincubation): Yes
IC50 (ARAF; preincubation 15 Min): 1390 nM
IC50 (ARAF; preincubation 60 Min): 1300 nM
Time Dependence Observed? DDR2 (DDR2; 15 vs 60 Min preincubation): No
IC50 (DDR2; preincubation 15 Min): 222 nM
IC50 (DDR2; preincubation 60 Min): 221 nM
Time Dependence Observed? ROS/ROS1 (ROS/ROS1; 15 vs 60 Min preincubation): No
IC50 (ROS/ROS1; preincubation 15 Min): 1250 nM
IC50 (ROS/ROS1; preincubation 60 Min): 1280 nM
SMILES: Cc1ccc(NC(=O)c2nc(S(C)(=O)=O)[nH]c2-c2ccc(F)cc2)cc1Nc1nccc(-c2cccnc2)n1 [Inhibitor I-14, 3-(4-(pyridin-3-yl)-pyrimidinyl-2-yl)amino-4-methyl-analine, 5-(4-Fluorophenyl)-2-(methylsulfonyl)-1H-imidazole-4-carboxamide]
